According to patent US20100210649A1, “PYRIDAZINONES AND FURAN-CONTAINING COMPOUNDS” (Sloan-Kettering Institute for Cancer Research, priority 2006, published 2010):

What was measured:
Format in all cases: cell-based, human
H3255 = test: Non Small Cell Lung Cancer proliferation assay (Alamar Blue reduction), H3255; details: primary screening, 10 μM compound in 1% DMSO (v/v); for inhibition at 10 µM: Homo sapiens, NCI-H3255, read-out: percentage inhibition H3255
Protocol: (§1) These cells have a doubling time of 1-2 days. All cell types are adherent and grow in colonies. The cells should be kept at a density between 50,000 cells/mL -500,000 cells/mL to provide for optimum growth and adequate nutrition. The cell line should be maintained at 37° C. in a humidified atmosphere with 5% CO2 in a sterile cell culture incubator.
(§2) Non Small Cell Lung Cancer Proliferation Assay.
(§3) High Controls for this assay are made by treating Non Small Cell Lung Cancer cells with 5 ul of 10% DMSO. [Final concentration in this assay is 1% DMSO].
(§4) Important Note: All compounds for testing in this assay should be done at the final concentration of 1% DMSO.
(§5) After addition, the cells are placed in cell culture incubator at 37° C. for 48 hours for complete treatment.
(§6) After drug treatment, cytotoxicity is measured by Alamar Blue reduction.
(§7) The cells are incubated for 48 hours at 37° C. to complete the Alamar Blue reduction.
(§8) The final step in the assay is to measure the amount of Alamar Blue reduction. […] The Alamar Blue fluorescence is measured at an excitation of 530 nm and emission of 590 nm.
(§9) For the NSCLC project, the cell based assay was screened against a small molecule library of approximately 200,000 compounds. The compound library is stored in our automated robotic freezer (Biophile) at −20° C. in 100% DMSO. Compound freeze and thaw cycles are kept to a minimum. […] This assay was performed on a fully automated linear track robotic platform (CRS F3 Robot System, Thermo Electron Corp., Ontario, Canada) utilizing several integrated peripherals for plate handling, liquid dispensing, and readout detection. […] The microplates are then placed at 37° C. for 48 hours to complete treatment of cells with compounds. Next, 5 ul of alamar blue was added using a liquid dispenser (Flexprop Precision Dispenser, Perkin Elmer, Mass., USA) and incubated for 48 hours at 37° C. The alamar blue prompt fluorescence was measured on Victor V (Victor^3 V, Perkin Elmer, Mass., USA) and output data files were loaded into ORIS (Oncology Research Informatics System, MSKCC, NY, USA), a screening data acquisition and analysis platform.
(§10) The dose response studies were done with the following standard procedure. First, the cells were counted and dispensed at 250 cells/well into 384-well microplates with compound. The cells were incubated for 48 hours at 37 C to complete treatment, and then alamar blue was added for an additional 48 hours. Finally, alamar blue reduction was measured and the data was loaded into ORIS, our data screening acquisition platform.

H2030 = test: Non Small Cell Lung Cancer proliferation assay (Alamar Blue reduction), H2030; details: primary screening, 10 μM compound in 1% DMSO (v/v); for inhibition at 10 µM: Homo sapiens, NCI-H2030, read-out: percentage inhibition H2030
Protocol: as §1, §2, §3, §4, §5, §6, §7, §8, §9, §10

H1975 = test: Non Small Cell Lung Cancer proliferation assay (Alamar Blue reduction), H1975; details: primary screening, 10 μM compound in 1% DMSO (v/v); for inhibition at 10 µM: Homo sapiens, NCI-H1975, read-out: percentage inhibition H1975
Protocol: as §1, §2, §3, §4, §5, §6, §7, §8, §9, §10

H1650 = test: Non Small Cell Lung Cancer proliferation assay (Alamar Blue reduction), H1650; details: primary screening, 10 μM compound in 1% DMSO (v/v); for inhibition at 10 µM: Homo sapiens, NCI-H1650, read-out: percentage inhibition H1650
Protocol: as §1, §2, §3, §4, §5, §6, §7, §8, §9, §10

SMILES | inhibition at 10 µM (H3255) [%] | inhibition at 10 µM (H2030) [%] | inhibition at 10 µM (H1975) [%] | inhibition at 10 µM (H1650) [%] | percentage inhibition H3255 (H3255) [%] | percentage inhibition H2030 (H2030) [%] | percentage inhibition H1975 (H1975) [%] | percentage inhibition H1650 (H1650) [%]
O=c1ccc(Cl)nn1-c1cccc(Br)c1 [compound 178393] | -4 | -11 | 3 | 8 | – | – | – | –
CCCOc1cnn(-c2ccccc2)c(=O)c1Cl [compound 179389] | 28 | 8 | 1 | -3 | – | – | – | –
O=C(Cc1ccccc1)Oc1ccc(=O)n(-c2ccccc2)n1 [compound 180651] | 35 | 11 | 13 | 21 | – | – | – | –
Nc1ccc(Sc2cnn(-c3ccccc3)c(=O)c2Cl)cc1 [compound 181612] | 11 | 11 | -11 | 7 | – | – | – | –
N=c1c(-c2nc3ccccc3[nH]2)cc(C(=O)c2ccco2)nn1-c1ccccc1 [compound 181801] | 7 | -7 | 24 | 13 | – | – | – | –
Cc1cccc(-n2nc(C(=O)c3ccco3)cc(-c3nc4ccccc4[nH]3)c2=N)c1 [compound 181802] | 27 | -5 | 14 | -2 | – | – | – | –
COc1ccc(Sc2cnn(-c3ccccc3)c(=O)c2Cl)cc1 [compound 181862] | 22 | 9 | 3 | 7 | – | – | – | –
COc1ccc(-n2nc(C(=O)c3ccco3)cc(-c3nc4ccccc4[nH]3)c2=N)cc1 [compound 182721] | 4 | 11 | 9 | 8 | – | – | – | –
COc1cnn(-c2ccccc2)c(=O)c1SCc1ccc(Cl)c(Cl)c1 [compound 182729] | 1 | -14 | 23 | 10 | – | – | – | –
O=c1c2c(cnn1-c1ccccc1)SC(c1ccccc1)S2 (centres unmarked) [compound 182826] | – | – | – | – | −13 | −11 | 12 | 13
O=c1c(SCc2ccccc2)c(Cl)cnn1-c1ccccc1 [compound 182827] | -24 | -6 | 14 | -20 | – | – | – | –
O=c1c(SCc2ccccc2)c(SC2CCCCO2)cnn1-c1ccccc1 (centres unmarked) [compound 182828] | 18 | -8 | -5 | 25 | – | – | – | –
Cc1ccc(-n2ncc(SCc3ccccc3)c(Cl)c2=O)cc1 [compound 182830] | -4 | 3 | 10 | 20 | – | – | – | –
CSc1c(SCc2ccccc2)cnn(-c2ccccc2)c1=O [compound 182831] | -18 | -12 | 5 | -4 | – | – | – | –
O=C(CSc1cnn(-c2ccccc2)c(=O)c1Cl)c1ccc(Br)cc1 [compound 183073] | 30 | 8 | -6 | -3 | – | – | – | –
Cc1ccc(C)c(Sc2cnn(-c3ccccc3)c(=O)c2Cl)c1 [compound 183339] | -30 | -12 | 8 | 15 | – | – | – | –
CCOC(=O)C(C)Oc1ccc(=O)n(-c2ccccc2)n1 (centres unmarked) [compound 185423] | 23 | 3 | -9 | 16 | – | – | – | –
N=c1c(-c2nc3ccccc3[nH]2)cc(C(=O)c2cccs2)nn1-c1ccc(Cl)cc1 [compound 186017] | -13 | -4 | -6 | -12 | – | – | – | –
Cc1ccccc1-n1nc(C(=O)c2cccs2)cc(-c2nc3ccccc3[nH]2)c1=N [compound 186018] | 35 | 4 | -4 | 42 | – | – | – | –

SMILES | inhibition at 10 µM (H3255) [%] | inhibition at 10 µM (H2030) [%] | inhibition at 10 µM (H1975) [%] | inhibition at 10 µM (H1650) [%] | percentage inhibition H3255 (H3255) [%] | percentage inhibition H2030 (H2030) [%] | percentage inhibition H1975 (H1975) [%] | percentage inhibition H1650 (H1650) [%]
N=c1c(-c2nc3ccccc3[nH]2)cc(C(=O)c2cccs2)nn1-c1ccccc1 [compound 186924] | 8 | 1 | 14 | 7 | – | – | – | –
COc1ccc(-n2nc(C(=O)c3cccs3)cc(-c3nc4ccccc4[nH]3)c2=N)cc1 [compound 186925] | -28 | 1 | 3 | 6 | – | – | – | –
N#Cc1ccccc1-n1nc(C(=O)c2cccs2)cc(-c2nc3ccccc3[nH]2)c1=N [compound 186926] | – | – | – | – | 52 | 2 | 81 | 27
CC(=O)N(C(C)=O)c1c(Cl)cnn(-c2ccccc2)c1=O [compound 187116] | 27 | 4 | 90 | 31 | – | – | – | –
COc1cnn(-c2ccccc2)c(=O)c1S [compound 187118] | 108 | 7 | 96 | 101 | – | – | – | –
Cc1cc(N(C)C)c(=O)n(-c2ccccc2)n1 [compound 189015] | 32 | -4 | 29 | 21 | – | – | – | –
O=c1ccc(O)nn1-c1ccccc1 [compound 189286] | -15 | 5 | 9 | 0 | – | – | – | –
COC(=O)NCCOc1cnn(-c2ccccc2)c(=O)c1 [compound 189493] | -25 | -8 | 12 | 2 | – | – | – | –
COc1ccc(-n2nc(C(=O)c3ccccc3)cc(-c3nc4ccccc4[nH]3)c2=N)cc1 [compound 193067] | -35 | 4 | 21 | -7 | – | – | – | –
CCc1c(C(=O)OC)nn(-c2ccc(C)cc2)c(=O)c1C#N [compound 193326] | -49 | -9 | -1 | -2 | – | – | – | –
COc1ccc(-n2nc(Cl)ccc2=O)cc1 [compound 194491] | -32 | -12 | 0 | -2 | – | – | – | –
O=c1c(Cl)c(N2CCN(CCO)CC2)cnn1-c1cccc(Cl)c1 [compound 194617] | -5 | -4 | 9 | -9 | – | – | – | –
CN1CCN(c2cnn(-c3ccc(Cl)cc3)c(=O)c2Cl)CC1 [compound 194618] | -48 | -6 | -3 | -15 | – | – | – | –
Cc1c(C(=O)NN)nn(-c2ccccc2)c(=O)c1C#N [compound 194841] | -35 | -9 | -15 | -1 | – | – | – | –
O=c1c(SCc2ccc(Cl)cc2)c(SC2CCCCO2)cnn1-c1ccccc1 (centres unmarked) [compound 195063] | -6 | -6 | 34 | 22 | – | – | – | –
O=c1cc(N2CCOCC2)cnn1-c1ccccc1 [compound 195066] | -9 | 9 | -3 | 8 | – | – | – | –
O=c1c(Sc2ccccc2)c(Sc2ccccc2)cnn1-c1ccccc1 [compound 195070] | -73 | -7 | 9 | 8 | – | – | – | –
O=c1c(SCc2ccco2)c(SCc2ccco2)cnn1-c1ccccc1 [compound 195071] | 82 | 9 | 77 | 71 | – | – | – | –
O=c1ccc(Cl)nn1-c1ccccc1 [compound 195149] | -19 | -5 | 11 | -4 | – | – | – | –
